Eleven compounds from US12630534B2 (TAKEDA PHARMACEUTICAL COMPANY LIMITED, priority 2020, dated 2026) can be followed below.

A word on the inhibition: it is the drop in the measured response relative to a control, in per cent.

One assay deals with T1, human GPR139 (Homo sapiens, UniProt Q6DWJ6).
T1 construct: expressed in transfected cells; host or cells: CHO-TREx (Life Technologies) cells, expression induced with doxycycline
T1 sequence (Q6DWJ6 1-353): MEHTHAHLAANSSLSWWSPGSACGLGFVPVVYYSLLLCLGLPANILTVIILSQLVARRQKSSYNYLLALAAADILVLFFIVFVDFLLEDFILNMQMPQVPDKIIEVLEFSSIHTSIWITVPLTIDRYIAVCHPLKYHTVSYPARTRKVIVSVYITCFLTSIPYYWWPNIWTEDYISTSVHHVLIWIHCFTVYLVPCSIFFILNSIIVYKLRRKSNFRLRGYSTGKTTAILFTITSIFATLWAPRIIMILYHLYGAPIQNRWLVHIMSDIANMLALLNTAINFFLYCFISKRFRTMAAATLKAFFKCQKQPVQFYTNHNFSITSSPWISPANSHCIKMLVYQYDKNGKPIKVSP
As to the kind of experiment: Inhibition rate of the amount of IP1 in GPR139-expressed CHO cells (inverse agonist assay, Test Example 2). Format: cell-based. As to conditions: CHO, relative value, inhibition rate of Example Compound 2 in Test Example 1 defined as 100%. In short, it runs like this: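 CHO-TREx cells with doxycycline-inducible human GPR139 (2 μg/mL, 17 h) were incubated with compound at 2000 cells/well for 40 min at 37° C. IP1 quantified by HTRF (665/615 nm ratio ×10000); inhibition rate expressed relative to a reference compound defined as […].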
`CCn1cc(Cn2cc(C)n(-c3cc(Br)cc(N4CCOC(C)(C)C4)c3)c2=O)cn1` [Example 137, 3-[3-bromo-5-(2,2-dimethylmorpholin-4-yl)phenyl]-1-[(1-ethyl-1H-pyrazol-4-y)methyl]-4-methyl-1,3-dihydro-2H-imidazol-2-one]: the inhibition at 30 µM came to 98%.
As to `CCn1cc(Cn2c(C)cn(-c3cc(N4CCO[C@H](C)C4)cc(C(F)(F)F)c3C)c2=O)cn1` [Example 62, 3-[(1-ethyl-1H-pyrazol-4-yl)methyl]-4-methyl-1-{2-methyl-5-[(2R)-2-methylmorpholin-4-yl]-3-(trifluoromethyl)phenyl}-1,3-dihydro-2H-imidazol-2-one], the inhibition at 30 µM amounted to 99%.
With `CCn1cc(Cn2ccn(-c3cc(N4CCO[C@H](C)C4)cc(OC(F)(F)F)c3F)c2=O)cn1` [Example 153, 1-[(1-ethyl-1H-pyrazol-4-yl)methyl]-3-{2-fluoro-5-[(2R)-2-methylmorpholin-4-yl]-3-(trifluoromethoxy)phenyl}-1,3-dihydro-2H-imidazol-2-one], the inhibition at 30 µM turned out to be 100%.
Same read-out and setting: the same measure for `CCn1cc(Cn2cc(C)n(-c3cc(Br)cc(OCC4CC(F)(F)C4)c3)c2=O)cn1` [Example 65, 3-{3-bromo-5-[(3,3-difluorocyclobutyl)methoxy]phenyl}-1-[(1-ethyl-1H-pyrazol-4-yl)methyl]-4-methyl-1,3-dihydro-2H-imidazol-2-one]: 98%.
Consider `CCn1cc(Cn2cc(C)n(-c3cc(OCC4CC4)cc(C(F)(F)F)c3)c2=O)cn1` [Example 17, 3-[3-(cyclopropylmethoxy)-5-(trifluoromethyl)phenyl]-1-[(1-ethyl-1H-pyrazol-4-yl)methyl]-4-methyl-1,3-dihydro-2H-imidazol-2-one], for which the inhibition at 30 µM came out at 99%.
Consider `CCn1cc(Cn2cc(C)n(-c3cc(C(F)(F)F)cc(NCC4(F)CCC4)n3)c2=O)cn1` [Example 110, 1-[(1-Ethyl-1-pyrazole-4-yl)methyl]-3-[6={[(1-fluorocyclobutyl)methyl]amino}-4-(trifluoromethyl)pyridine-2-yl]-4-methyl-1,3-dihydro-2H-imidazole-2-one], for which the inhibition at 30 µM worked out at 101%.
Turning to `CCn1cc(Cn2c(C)c(C)n(-c3cc(C(F)(F)F)cc(OC[C@@H]4CCCO4)n3)c2=O)cn1` [Example 115, 1-[(1-ethyl-1H-pyrazol-4-yl)methyl]-4,5-dimethyl-3-[6-{[(2S)-oxolan-2-yl]methoxy}-4-(trifluoromethyl)pyridin-2-yl]-1,3-dihydro-2H-imidazol-2-one], the inhibition at 30 µM was 103%.
On the same count and under the same terms, the same measure for `CCn1cc(Cn2c(C)nn(-c3cc(N4CCOC(C)(C)C4)cc(C(F)(F)F)c3F)c2=O)cn1` [Example 96, 2-[5-(2,2-dimethylmorpholin-4-yl)-2-fluoro-3-(trifluoromethyl)phenyl]-4-[(1-ethyl-1H-pyrazol-4-yl)methyl]-5-methyl-2,4-dihydro-3H-1,2,4-triazol-3-one]: 101%.
The same measure, in the same setting: the same measure for `Cc1cn(Cc2cnn(C(C)C)c2)c(=O)n1-c1cc(OC[C@@H]2CCCO2)cc(C(F)(F)F)c1` [Example 101, 4-methyl-3-[3-{[(2S)-oxolan-2-yl]methoxy}-5-(trifluoromethyl)phenyl]-1-{[1-(propan-2-yl)-1H-pyrazol-4-yl]methyl}-1,3-dihydro-2H-imidazol-2-one]: 99%; for `CCn1cc(Cn2cc(C)n(-c3cc(OCC4CC4(F)F)cc(C(F)(F)F)c3)c2=O)cn1` (centres unmarked) [Example 22, 3-{3-[(2,2-difluorocyclopropyl)methoxy]-5-(trifluoromethyl)phenyl}-1-[(1-ethyl-1H-pyrazol-4-yl)methyl]-4-methyl-1,3-dihydro-2H-imidazol-2-one]: 100%.

Staying with this assay, now noted: relative value, inhibition rate of Example Compound 2 in Test Example 1 defined as 100%.
In the case of `CCn1cc(Cn2ccn(-c3cc(N4CCC(F)(F)CC4)cc(C4CC4(F)F)c3F)c2=O)cn1` (centres unmarked) [Example 158, 1-[3-(2,2-difluorocyclopropyl)-5-(4,4-difluoropiperidin-1-yl)-2-fluorophenyl]-3-[(1-ethyl-1H-pyrazol-4-yl)methyl]-1,3-dihydro-2H-imidazol-2-one], the “Inhibition Rate at 30 μM” value was found to be 98%.
